Test results as given in patent US20240336551A1, “BIODEGRADEBLE MATERIAL MANUFACTURING METHOD AND SYSTEM” (NOROO IC Co., Ltd., priority 2023, published 2024).

Assays:
[1] = Degree of biodegradability: cumulative amount of CO2 generated over time (FIG. 4)
Description: In describing the present invention, “biodegradable” refers to a definition based on ASTM […]-15 (Standard Test Method for Determination of Aerobic Biodegradation of Plastic Materials Under Controlled Composting Conditions, Incorporating Thermophilic Temperatures). […] This is a much faster biodegradation rate than that of poly (lactic acid) (PLA), which is a biodegradable polymer.

[2] = test system: microorganisms; test: Sterilization experiment, overall conclusion; format: cell-based; conditions: conclusion drawn from Table 1
Experimental: (§1) Meanwhile, a sterilization experiment was conducted on ethyl 3-HP, a biodegradable material manufactured by the system of the present invention, and the data thereof is shown in Table 1 below. The sterilization experiment was conducted by a test method according to the KCL-FIR-1002:2021 standard.
From the above data, it can be confirmed that […].

[3] = test system: Streptococcus mutans ATCC 25175; test: Sterilization experiment (antimicrobial test, KCL-FIR-1002:2021): Streptococcus mutans; format: cell-based
Experimental: as §1

[4] = test system: Escherichia coli ATCC 25922; test: Sterilization experiment (antimicrobial test, KCL-FIR-1002:2021): Escherichia coli; format: cell-based
Experimental: as §1

[5] = test system: (Bacillus cereus ATCC 11778); test: Sterilization experiment (antimicrobial test, KCL-FIR-1002:2021): Bacillus cereus; format: cell-based; conditions: after 24 hours, versus BLANK
Experimental: as §1

[6] = test system: Streptococcus (Bacillus cereus ATCC 11778); test: as above; format: cell-based; conditions: initial concentration 3.0*10^4 CFU/ml, BLANK 3.1*10^5
Experimental: as §1

[7] = test system: Staphylococcus aureus ATCC 6538; test: Sterilization experiment (antimicrobial test, KCL-FIR-1002:2021): Staphylococcus aureus; format: cell-based
Experimental: as §1

[8] = test system: MRSA bacteria (Staphylococcus aureus subsp. aureus); test: Sterilization experiment (antimicrobial test, KCL-FIR-1002:2021): MRSA bacteria; format: cell-based
Experimental: as §1

O=C(O)CCO [3-HP, 3-hydroxy propionate]
Biodegradability compared to PLA [1]: excellent biodegradability compared to PLA
Bacteriostatic / sterilizing effect [2]: only the bacteriostatic effect and no sterilizing effect

CCOC(=O)CCO [Ethyl 3-HP, ethyl 3-hydroxypropionate]
Bacteriostatic reduction rate ([3]; after 24 hours, versus BLANK): 48.1%
Concentration after 24 hours ([3]; initial concentration 2.6*10^4 CFU/ml, BLANK 2.7*10^5): 1.4*10^5 CFU/ml
Bacteriostatic reduction rate ([4]; after 24 hours, versus BLANK): 20%
Concentration after 24 hours ([4]; initial concentration 1.3*10^4 CFU/ml, BLANK 1.5*10^5): 1.2*10^5 CFU/ml
Bacteriostatic reduction rate [5]: 45.1%
Concentration after 24 hours [6]: 1.7*10^5 CFU/ml
Biodegradability compared to PLA [1]: excellent biodegradability compared to PLA
Bacteriostatic reduction rate ([7]; after 24 hours, versus BLANK): 8.1%
Concentration after 24 hours ([7]; initial concentration 3.4*10^4 CFU/ml, BLANK 3.7*10^5): 3.4*10^5 CFU/ml
Bacteriostatic reduction rate ([8]; after 24 hours, versus BLANK): 61.5%
Concentration after 24 hours ([8]; initial concentration 2.5*10^4 CFU/ml, BLANK 2.6*10^5): 1.0*10^5 CFU/ml
